Laboratory results as given in BindingDB's records for patent US20250326769 (Nuvalent, 2025).
pKi: −log10 of the molar value.

Tests used:
[1] = target: ALK tyrosine kinase receptor [I1171N,D1203N] (UniProt Q9UM73, D1203N/I1171N); experiment: Biochemical Kinase Assay
Experimental: (§1) First, 250 nL of compound dissolved in DMSO (100-fold of the desired concentration) was dispensed into a 384-well plate. A 12.5 μL substrate solution containing ATP (2 mM) and fluorogenic phosphorylation substrate AQT0101 ([…] for ALK and ROS, AssayQuant) or AQT0104 (26 μM for TRKB, AssayQuant) in buffer (50 mM HEPES pH 7.5, […], 0.5 mM EGTA, 10 mM MgCl2) was added and mixed thoroughly. Then, a 12.5 μL kinase solution containing ALK (1.5 nM, Carna, 08-518), ALK I1171N/D1203N (4 nM, SignalChem, custom-made), ROS1 (0.6 nM, Carma, 08-163), ROS1-G2032R (0.5 nM, SignalChem, R14-121BG), or TRKB-wt (1.5 nM, SignalChem, N17-11G) kinase domains in buffer ([…] pH 7.5, 0.01% Brij-[…], 0.4 mg/mL BSA, 0.5 mM EGTA, and 10 mM MgCl2) was added and mixed thoroughly. The plate was sealed and read by SpectraMax Paradigm at λ=485 nm every 2 minutes for 120 minutes at 30° C. Initial rates of reaction (v) were calculated from the change in fluorescence intensity over time during the initial, linear portion of the reaction.

[2] = target: BDNF/NT-3 growth factors receptor (Homo sapiens, UniProt Q16620); experiment: Biochemical Kinase Assay
Sequence of BDNF/NT-3 growth factors receptor (Q16620 whole entry): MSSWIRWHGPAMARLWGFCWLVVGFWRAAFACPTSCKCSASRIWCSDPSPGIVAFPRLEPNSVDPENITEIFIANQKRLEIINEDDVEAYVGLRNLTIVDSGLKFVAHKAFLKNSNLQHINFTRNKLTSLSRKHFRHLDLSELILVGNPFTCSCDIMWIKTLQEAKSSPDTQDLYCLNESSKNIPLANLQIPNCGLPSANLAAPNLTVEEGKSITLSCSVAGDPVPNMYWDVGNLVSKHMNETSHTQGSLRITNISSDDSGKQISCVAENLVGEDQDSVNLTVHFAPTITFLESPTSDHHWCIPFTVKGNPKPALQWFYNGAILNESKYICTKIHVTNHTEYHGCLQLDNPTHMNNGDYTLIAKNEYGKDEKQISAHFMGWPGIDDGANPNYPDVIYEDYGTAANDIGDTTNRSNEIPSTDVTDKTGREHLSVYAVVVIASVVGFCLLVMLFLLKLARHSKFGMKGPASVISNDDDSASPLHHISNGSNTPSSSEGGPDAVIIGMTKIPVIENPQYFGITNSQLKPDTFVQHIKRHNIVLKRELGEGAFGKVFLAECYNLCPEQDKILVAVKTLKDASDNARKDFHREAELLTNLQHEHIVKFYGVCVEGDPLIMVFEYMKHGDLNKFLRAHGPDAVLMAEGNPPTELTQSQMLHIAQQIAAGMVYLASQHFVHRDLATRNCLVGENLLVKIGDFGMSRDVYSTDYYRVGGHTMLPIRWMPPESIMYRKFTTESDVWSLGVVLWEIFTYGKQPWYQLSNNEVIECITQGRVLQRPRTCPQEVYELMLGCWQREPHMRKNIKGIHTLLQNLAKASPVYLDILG
Experimental: as §1

Sequence of ALK tyrosine kinase receptor [I1171N,D1203N] (Q9UM73 19-1620 I1171N/D1203N limits assumed): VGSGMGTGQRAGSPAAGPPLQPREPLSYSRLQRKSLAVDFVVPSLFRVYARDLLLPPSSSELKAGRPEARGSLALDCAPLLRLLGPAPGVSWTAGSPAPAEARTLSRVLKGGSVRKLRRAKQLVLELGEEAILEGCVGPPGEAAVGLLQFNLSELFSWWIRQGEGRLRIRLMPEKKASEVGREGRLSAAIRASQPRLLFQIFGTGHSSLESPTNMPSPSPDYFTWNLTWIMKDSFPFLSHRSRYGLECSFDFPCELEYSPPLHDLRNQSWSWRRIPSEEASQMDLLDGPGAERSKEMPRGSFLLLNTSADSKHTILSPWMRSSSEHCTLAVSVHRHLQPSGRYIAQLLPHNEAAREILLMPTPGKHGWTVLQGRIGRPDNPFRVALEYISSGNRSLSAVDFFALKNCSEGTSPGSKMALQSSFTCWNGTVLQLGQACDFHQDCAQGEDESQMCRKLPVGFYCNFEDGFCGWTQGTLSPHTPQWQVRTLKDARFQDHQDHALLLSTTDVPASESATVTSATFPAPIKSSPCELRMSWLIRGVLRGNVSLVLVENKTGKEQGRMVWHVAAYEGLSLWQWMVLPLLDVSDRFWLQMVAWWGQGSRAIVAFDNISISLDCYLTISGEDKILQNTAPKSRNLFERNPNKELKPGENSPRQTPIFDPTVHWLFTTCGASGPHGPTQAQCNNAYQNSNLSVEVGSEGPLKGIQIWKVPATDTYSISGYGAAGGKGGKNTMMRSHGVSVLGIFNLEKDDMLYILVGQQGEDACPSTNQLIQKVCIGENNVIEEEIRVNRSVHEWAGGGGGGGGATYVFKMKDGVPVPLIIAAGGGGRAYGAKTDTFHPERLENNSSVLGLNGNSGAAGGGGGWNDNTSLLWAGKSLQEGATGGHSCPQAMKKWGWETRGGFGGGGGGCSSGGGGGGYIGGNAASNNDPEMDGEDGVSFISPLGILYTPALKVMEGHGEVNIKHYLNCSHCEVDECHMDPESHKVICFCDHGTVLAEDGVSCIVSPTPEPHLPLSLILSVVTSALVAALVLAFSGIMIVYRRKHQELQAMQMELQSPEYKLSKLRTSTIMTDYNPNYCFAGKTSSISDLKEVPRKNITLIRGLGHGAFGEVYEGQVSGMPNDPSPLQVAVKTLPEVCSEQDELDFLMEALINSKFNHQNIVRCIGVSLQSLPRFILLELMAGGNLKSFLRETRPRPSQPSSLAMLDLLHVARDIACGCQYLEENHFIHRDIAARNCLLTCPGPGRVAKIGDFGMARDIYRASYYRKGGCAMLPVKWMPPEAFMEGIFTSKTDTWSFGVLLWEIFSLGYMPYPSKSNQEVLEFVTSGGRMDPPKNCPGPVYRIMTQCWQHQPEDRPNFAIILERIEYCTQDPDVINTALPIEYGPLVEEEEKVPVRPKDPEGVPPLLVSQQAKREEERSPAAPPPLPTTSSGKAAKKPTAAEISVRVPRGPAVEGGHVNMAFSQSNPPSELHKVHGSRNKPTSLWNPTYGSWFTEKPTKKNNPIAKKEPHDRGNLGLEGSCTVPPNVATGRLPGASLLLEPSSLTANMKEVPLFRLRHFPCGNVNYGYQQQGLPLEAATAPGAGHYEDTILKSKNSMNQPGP

| Structure (SMILES) | pKi [1] | pKi [2] |
| --- | --- | --- |
| CC(C)N(C)C(=O)c1nn(CC2CC2)c2c1Cc1cn(C)nc1-c1ccc(F)cc1[C@@H](C)Oc1cc-2cnc1N [US20250326769, Example 37] | > 7.30 | < 6.30 |
| CCN(C)C(=O)c1nn(CC2CC2)c2c1Cc1cn(C)nc1-c1ccc(F)cc1[C@@H](C)Oc1cc-2cnc1N [US20250326769, Example 38] | > 7.30 |  |
| Cc1cc2n(n1)-c1c(F)cc(F)cc1[C@@H](C)Oc1cc(cnc1N)-c1c(c(C(=O)N(C)C)nn1CC1CC1)C2 [US20250326769, Example 44] | > 7.30 |  |

Other lines, results leading:

| pKi [1] | pKi [2] | Structure (SMILES) |
| --- | --- | --- |
| > 7.30 |  | C[C@H]1Oc2cc(cnc2N)-c2c(c(C(N)=O)nn2CC2CC2)Cc2cccnc2-c2ccc(F)cc21 [US20250326769, Example 6] |
| > 7.30 | > 7.30 | CCn1ncc2c1-c1cnc(N)c(c1)O[C@H](C)c1cc(F)ccc1-c1ncccc1O2 [US20250326769, Example 14] |
